# Like-named read-outs stand apart in the source and are kept apart here.
# Legend:
# recombinant His-CHK1 = molecular target: T1, recombinant His-CHK1 (Homo sapiens, UniProt O14757); assay: CHK1 SPA Assay; format: biochemical; conditions: read-out: CHK-1 IC50
# T1 construct: His-CHK1, In House Lot P976, MW ˜30 KDa, stored at −80 °C; fused on or other part: His tag
# T1 sequence (O14757 1-265 limits assumed): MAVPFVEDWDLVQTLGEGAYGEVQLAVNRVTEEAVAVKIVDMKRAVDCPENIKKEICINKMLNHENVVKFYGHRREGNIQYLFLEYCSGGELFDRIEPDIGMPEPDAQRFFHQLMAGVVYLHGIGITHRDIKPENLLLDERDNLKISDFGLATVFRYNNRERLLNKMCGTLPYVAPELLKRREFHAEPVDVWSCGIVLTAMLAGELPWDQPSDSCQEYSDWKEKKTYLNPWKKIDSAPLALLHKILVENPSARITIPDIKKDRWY
# Protocol: An in vitro assay was developed that utilizes recombinant His-CHK1 expressed in the baculovirus expression system as an enzyme source and a biotinylated peptide based on CDC25C as substrate (biotin-[…]).
# 1) CDC25C Ser 216 C-term Biotinylated peptide substrate (25 mg), stored at −20 °C, Custom Synthesis by Research Genetics: biotin-[…] 2595.4 MW
# 2) His-CHK1 In House lot P976, 235 ug/mL, stored at −80 °C.
# 1) Kinase Buffer: 50 mM Tris pH 8.0; 10 mM MgCl2; 1 mM DTT
# 2) His-CHK1, In House Lot P976, MW ˜30 KDa, stored at −80 °C. […] For 1 plate (100 r×n): dilute 8 μL of 235 μg/mL (7.83 uM) stock in 2 mL Kinase Buffer. This makes a 31 nM mixture. Add 20 μL/well. This makes a final reaction concentration of 6 nM.
# 3) CDC25C Biotinylated peptide.
# Dilute CDC25C to 1 mg/mL (385 uM) stock and store at −20° C. For 1 plate (100 r×n): dilute 10 1L of 1 mg/mL peptide stock in 2 ml Kinase Buffer. This gives a 1.925 μM mix. Add 20 1L/r×n. This makes a final reaction concentration of 385 nM.
# For 1 plate (100 r×n): dilute 10 μL of 1 mM ATP (cold) stock and 2 uL fresh P33-ATP (20 μCi) in 5 ml Kinase Buffer. This gives a 2 μM ATP (cold) solution; add 50 μl/well to start the reaction. Final volume is 100 μl/r×n so the final reaction concentrations will be 1 μM ATP (cold) and 0.2 uCi/r×n.
# For 1 plate add: To 10 mL Wash Buffer 2 (2M NaCl 1% H3PO4): 1 mL SPA bead slurry (50 mg); Add 100 μL/well
# 6) Wash buffer 1: 2 M NaCl
# 7) Wash buffer 2: 2 M NaCl, 1% H3PO4
# Dispense 10 μl/r×n to appropriate wells. Add 10 μL 10% DMSO to positive (CHK1+CDC25C+ATP) and negative (CHK1+ATP only) control wells. 2) Thaw enzyme on ice—dilute enzyme to proper concentration in kinase buffer (see Reaction Mixtures) and dispense 20 μl to each well. 3) Thaw the Biotinylated substrate on ice and dilute in kinase buffer (see Reaction Mixtures). Add 20 μL/well except to negative control wells. Instead, add 20 uL Kinase Buffer to these wells. 4) Dilute ATP (cold) and P33-ATP in kinase buffer (see Reaction Mixtures). Add 50 μL/well to start the reaction. 5) Allow the reaction to run for 2 hours at room temperature. 6) Stop reaction by adding 100 uL of the SPA beads/stop solution (see Reaction Mixtures) and leave to incubate for 15 minutes before harvest 7) Place a blank Packard GF/B filter plate into the vacuum filter device (Packard plate harvester) and aspirate […] water through to wet the system. 8) Take out the blank and put in the Packard GF/B filter plate. 9) Aspirate the reaction through the filter plate. 10) Wash: 200 ml each wash; 1× with 2M NaCl; 1× with 2M NaCl/1% H3PO4 11) Allow filter plate to dry 15 min. 12) Put TopSeal-A adhesive on top of filter plate. 13) Run filter plate in Top Count
# Settings: • Data mode: CPM • Radio nuclide: Manual SPA:P33 • Scintillator: Liq/plast • Energy Range: Low
# (§1) IC50 DETERMINATIONS: Dose-response curves were plotted from inhibition data generated, each in duplicate, from 8 point serial dilutions of inhibitory compounds. Concentration of compound was plotted against % kinase activity, calculated by CPM of treated samples divided by CPM of untreated samples. To generate IC50 values, the dose-response curves were then fitted to a standard sigmoidal curve and IC50 values were derived by nonlinear regression analysis.
# Cyclin E/CDK2 = molecular target: T2, Cyclin E/CDK2 (Homo sapiens, UniProt P24941); assay: CDK2 Assay (Cyclin E/CDK2 in vitro kinase assay); format: biochemical
# T2 construct: made in house; host or cells: SF9 cells (baculovirus co-infection)
# Excerpt: BACULOVIRUS CONSTRUCTIONS: Cyclin E was cloned into pVL1393 (Pharmingen, La Jolla, Calif.) by PCR, with the addition of 5 histidine residues at the amino-terminal end to allow purification on nickel resin. The expressed protein was approximately 45 kDa. CDK2 was cloned into pVL1393 by PCR, with the addition of a haemaglutinin epitope tag at the carboxy-terminal end (YDVPDYAS). The expressed protein was approximately 34 kDa in size.
# ENZYME PRODUCTION: Recombinant baculoviruses expressing cyclin E and CDK2 were co-infected into SF9 cells at an equal multiplicity of infection (MOI=5), for 48 hrs. Cells were harvested by centrifugation at 1000 RPM for 10 minutes, then pellets lysed on ice for 30 minutes in five times the pellet volume of lysis buffer containing 50 mM Tris pH 8.0, 1 50 mM NaCl, 1% NP40, 1 mM DTT and protease inhibitors (Roche Diagnostics GmbH, Mannheim, Germany). Lysates were spun down at 15000 RPM for 10 minutes and the supernatant retained. 5 ml of nickel beads (for one liter of SF9 cells) were washed three times in lysis buffer (Qiagen GmbH, Germany). Imidazole was added to the baculovirus supernatant to a final concentration of 20 mM, then incubated with the nickel beads for 45 minutes at 4° C. Proteins were eluted with lysis buffer containing 250 mM imidazole. Eluate was dialyzed overnight in 2 liters of kinase buffer containing 50 mM Tris pH 8.0, 1 mM DTT, 10 mM MgCl2, 100 uM sodium orthovanadate and 20% glycerol. Enzyme was stored in aliquots at −70° C.
# IN VITRO KINASE ASSAY: Cyclin E/CDK2 kinase assays were performed in low protein binding 96-well plates (Corning Inc, Corning, N.Y.). Enzyme was diluted to a final concentration of 50 μg/ml in kinase buffer containing 50 mM Tris pH 8.0, 10 mM MgCl2, 1 mM DTT, and 0.1 mM sodium orthovanadate. The substrate used in these reactions was a biotinylated peptide derived from Histone H1 (from Amersham, UK). The substrate was thawed on ice and diluted to 2 μM in kinase buffer. Compounds were diluted in 10% DMSO to desirable concentrations. For each kinase reaction, 20 μl of the 50 µg/ml enzyme solution (1 μg of enzyme) and 20 μl of the 2 μM substrate solution were mixed, then combined with 10 μl of diluted compound in each well for testing. The kinase reaction was started by addition of 50 μl of 2 μM ATP and 0.1 μCi of 33P-ATP (from Amersham, UK). The reaction was allowed to run for 1 hour at room temperature. The reaction was stopped by adding 200 μl of stop buffer containing 0.1% Triton X-100, 1 mM ATP, 5 mM EDTA, and 5 mg/ml streptavidine coated SPA beads (from Amersham, UK) for 15 minutes. The SPA beads were then captured onto a 96-well GF/B filter plate (Packard/Perkin Elmer Life Sciences) using a Filtermate universal harvester (Packard/Perkin Elmer Life Sciences.). Non-specific signals were eliminated by washing the beads twice with 2M NaCl then twice with 2 M NaCl with 1% phosphoric acid. The radioactive signal was then measured using a TopCount 96 well liquid scintillation counter (from Packard/Perkin Elmer Life Sciences).
# as §1
Structure (SMILES),IC50 (recombinant His-CHK1) [nM],IC50 (Cyclin E/CDK2; read-out: CDK2 IC50) [nM],IC50 (Cyclin E/CDK2; CDK2 IC50) [nM]
Cn1cc(-c2cnc3c(Nc4ccc5ncccc5c4)nccn23)cn1,492,,
Cc1cc(Nc2nccn3c(-c4cnn(C)c4)cnc23)sn1,54,,
CNCCc1cn2c(-c3cnn(C)c3)cnc2c(Nc2cc(C)ns2)n1,13,11400,
Cc1cc(Nc2nc(CCN)cn3c(-c4cnn(C)c4)cnc23)sn1,7,5940,
Cn1cc(-c2cnc3c(Nc4cc(C5CCNCC5)ns4)nccn23)cn1,31,18100,
Cn1cc(-c2cnc3c(Nc4ccc(-n5ccnc5)cc4)nc(C4=CCNCC4)cn23)cn1,181,,19400
Cc1cc(Nc2nc(C3=CCCNC3)cn3c(-c4cnn(C)c4)cnc23)sn1,14,11000,
Cc1cc(Nc2nc(C3CCCNC3)cn3c(-c4cnn(C)c4)cnc23)sn1 (stereo not drawn),13,1100,
Cn1cc(-c2cnc3c(Nc4sncc4C4CCCNC4)nccn23)cn1 (stereo not drawn),18,21800,
Cn1cc(-c2cnc3c(Nc4sncc4C4CCNC4)nccn23)cn1 (stereo not drawn),23,,
Cc1cnsc1Nc1nc(CCCN)cn2c(-c3cnn(C)c3)cnc12,5,1910,
CNCCCc1cn2c(-c3cnn(C)c3)cnc2c(Nc2sncc2C)n1,8,5770,
Cn1cc(-c2cnc3c(Nc4sncc4C4CCN(S(C)(=O)=O)C4)nc(CCCN)cn23)cn1 (stereo not drawn),8,,
Cc1cc(Nc2nc(C3=CCCNC3)cn3c(-c4cnn(C)c4)cnc23)sc1S(=O)(=O)N(C)C,7,5200,
CC(C)c1cnsc1Nc1nc(CCN)cn2c(-c3cnn(C)c3)cnc12,6380,13,
Cn1cc(-c2cnc3c(Nc4sncc4C(C)(C)C)nc(C4=CCCNC4)cn23)cn1,16,13700,
CC(C)c1cnsc1Nc1nc(C2=CCCNC2)cn2c(-c3cnn(C)c3)cnc12,6,4210,

Structure (SMILES),IC50 (recombinant His-CHK1) [nM],IC50 (Cyclin E/CDK2; read-out: CDK2 IC50) [nM],IC50 (Cyclin E/CDK2; CDK2 IC50) [nM]
Cc1cc(Nc2nc(C3=CCCNC3)cn3c(-c4cnn(C)c4)cnc23)sc1C(=O)N(C)C,16,24100,
Cc1cc(Nc2nc(C3=CCCNC3)cn3c(-c4cnn(C)c4)cnc23)sc1C(N)=O,23,16200,
Cn1cc(-c2cnc3c(Nc4sncc4C(C)(C)C)nc(CCN)cn23)cn1,11,14100,
Cc1cc(Nc2nc(CCN)cn3c(-c4cnn(C)c4)cnc23)sc1C(N)=O,19,17900,
CCNC(=O)c1sc(Nc2nc(CCN)cn3c(-c4cnn(C)c4)cnc23)cc1C,15,41300,
Cc1cc(Nc2nc(C3=CCCNC3)cn3c(-c4cnn(C)c4)cnc23)sc1C(=O)NC1CCN(S(C)(=O)=O)CC1,24,41000,
CCNC(=O)c1sc(Nc2nc(C3=CCCNC3)cn3c(-c4cnn(C)c4)cnc23)cc1C,15,,
Cn1cc(-c2cnc3c(Nc4ccns4)nc(CN)cn23)cn1,17,550,
CCN(CC)S(=O)(=O)c1sc(Nc2nc(C3=CCCNC3)cn3c(-c4cnn(C)c4)cnc23)cc1C,19,18300,
Cc1cc(Nc2nc(C3=CCCNC3)cn3c(-c4cnn(C)c4)cnc23)sc1S(=O)(=O)N1CCOCC1,7,5950,
Cc1cc(Nc2nc(C3=CCCNC3)cn3c(-c4cnn(C)c4)cnc23)sc1S(=O)(=O)N1CCCC1,6,5170,
CCNS(=O)(=O)c1sc(Nc2nc(C3=CCCNC3)cn3c(-c4cnn(C)c4)cnc23)cc1C,10,,
Cc1cc(Nc2nc(CCN)cn3c(-c4cnn(C)c4)cnc23)sc1S(=O)(=O)N(C)C,14,,
Cc1cc(Nc2nc(CCNCC3CC3)cn3c(-c4cnn(C)c4)cnc23)sc1S(=O)(=O)N(C)C,10,,
Cc1cc(Nc2nc(C3CCCNC3)cn3c(-c4cnn(C)c4)cnc23)sc1S(=O)(=O)N(C)C (stereo not drawn),12,,
Cc1cc(Nc2nc(SC3CCNC3)cn3c(-c4cnn(C)c4)cnc23)sn1 (stereo not drawn),19,,
Cc1cc(Nc2nc(C3=CCCNC3)cn3c(-c4cnn(C)c4)cnc23)sc1S(=O)(=O)N1CCC1,12,,

# From patent US20070105864A1, “Methods for inhibiting protein kinases” (Schering Corporation, priority 2005, published 2007)
